Results on two compounds are retold here after article PMC8845043 (ACS Pharmacology & Translational Science, 2022).

Data set [1] addresses hBChE from freshly collected human plasma (Homo sapiens, UniProt P06276). The data set is described as follows: Ex vivo anticholinesterase activity. It counts as biochemical.
The target of data set [2] is hAChE from freshly collected human erythrocytes (Homo sapiens, UniProt P22303). The data set is described as follows: Ex vivo anticholinesterase activity. It counts as biochemical.
For data set [3] the following is noted: human plasma, following a Posiphen 40 mg dose; cited from earlier work.

Chain of hBChE from freshly collected human plasma (P06276 29-602): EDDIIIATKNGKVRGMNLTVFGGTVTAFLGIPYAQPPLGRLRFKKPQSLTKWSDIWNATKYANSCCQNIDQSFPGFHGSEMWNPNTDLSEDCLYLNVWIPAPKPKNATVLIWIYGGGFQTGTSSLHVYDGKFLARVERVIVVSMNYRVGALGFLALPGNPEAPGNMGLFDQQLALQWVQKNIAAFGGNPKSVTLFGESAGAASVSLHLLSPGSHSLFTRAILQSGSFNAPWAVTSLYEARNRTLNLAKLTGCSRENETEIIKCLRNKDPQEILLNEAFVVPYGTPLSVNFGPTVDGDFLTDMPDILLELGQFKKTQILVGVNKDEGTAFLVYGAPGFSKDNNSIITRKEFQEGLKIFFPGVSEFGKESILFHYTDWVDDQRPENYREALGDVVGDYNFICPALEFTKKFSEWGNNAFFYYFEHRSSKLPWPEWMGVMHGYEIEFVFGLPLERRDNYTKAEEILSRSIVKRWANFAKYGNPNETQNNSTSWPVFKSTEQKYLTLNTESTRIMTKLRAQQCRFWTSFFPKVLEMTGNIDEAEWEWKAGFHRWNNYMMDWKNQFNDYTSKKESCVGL
Chain of hAChE from freshly collected human erythrocytes (P22303 32-617 isoform P22303-2 limits assumed): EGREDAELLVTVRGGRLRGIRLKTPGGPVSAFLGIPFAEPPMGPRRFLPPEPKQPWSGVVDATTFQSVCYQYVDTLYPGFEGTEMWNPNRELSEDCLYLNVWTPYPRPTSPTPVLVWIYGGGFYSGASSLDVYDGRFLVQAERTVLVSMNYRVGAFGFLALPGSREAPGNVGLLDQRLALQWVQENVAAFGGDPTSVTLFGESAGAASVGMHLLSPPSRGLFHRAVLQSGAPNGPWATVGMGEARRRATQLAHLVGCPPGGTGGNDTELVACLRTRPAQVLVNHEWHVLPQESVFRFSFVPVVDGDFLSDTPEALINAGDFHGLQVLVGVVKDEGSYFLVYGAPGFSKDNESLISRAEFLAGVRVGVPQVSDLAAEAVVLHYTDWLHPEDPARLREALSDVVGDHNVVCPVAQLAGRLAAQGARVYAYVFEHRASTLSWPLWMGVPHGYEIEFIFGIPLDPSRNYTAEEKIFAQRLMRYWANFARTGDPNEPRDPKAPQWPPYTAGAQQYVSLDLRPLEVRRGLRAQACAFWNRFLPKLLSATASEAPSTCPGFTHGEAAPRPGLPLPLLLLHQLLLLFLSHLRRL

With `CN1CC[C@@]2(C)c3cc(OC(=O)Nc4ccccc4)ccc3N(C)[C@@H]12` [Phenserine, reference compound], the IC50 (as a rule, the midpoint of a concentration-inhibition curve) in data set [1] was 1380 ± 240 nM.

As for `CN1CC[C@]2(C)c3cc(OC(=O)Nc4ccccc4)ccc3N(C)[C@H]12` [Posiphen], the figures for the IC50 in data set [2] and in data set [1] were above 10 µM and above 10000 nM, respectively. In data set [2] (wet lab evaluation, human AChE), the “AChE inhibitory action (in words)” value was “lacks AChE inhibitory action”. Moreover, the “plasma concentration CMax” value in data set [3] was 118.5 ng/mL.
